Results: patent EP0570197A1, “Hydroxylamine derivatives” (ZENECA LIMITED, priority 1992, dated 1993)

Experiments:
5-LO [1] = target: T1, 5-LO (Homo sapiens, UniProt P09917); assay: Test a): in vitro heparinised human blood challenged with calcium ionophore A23187, radioimmunoassay of LTB₄; format: cell-based; settings: heparinised human blood, A23187 challenge; read-out: IC₅₀ against LTB₄ in test a)
T1 construct: incubating a test compound with heparinised human blood, prior to challenge with the calcium ionophore A23187; endogenous in cells; host or cells: human whole blood (blood cells), heparinised
T1 sequence (P09917 1-674): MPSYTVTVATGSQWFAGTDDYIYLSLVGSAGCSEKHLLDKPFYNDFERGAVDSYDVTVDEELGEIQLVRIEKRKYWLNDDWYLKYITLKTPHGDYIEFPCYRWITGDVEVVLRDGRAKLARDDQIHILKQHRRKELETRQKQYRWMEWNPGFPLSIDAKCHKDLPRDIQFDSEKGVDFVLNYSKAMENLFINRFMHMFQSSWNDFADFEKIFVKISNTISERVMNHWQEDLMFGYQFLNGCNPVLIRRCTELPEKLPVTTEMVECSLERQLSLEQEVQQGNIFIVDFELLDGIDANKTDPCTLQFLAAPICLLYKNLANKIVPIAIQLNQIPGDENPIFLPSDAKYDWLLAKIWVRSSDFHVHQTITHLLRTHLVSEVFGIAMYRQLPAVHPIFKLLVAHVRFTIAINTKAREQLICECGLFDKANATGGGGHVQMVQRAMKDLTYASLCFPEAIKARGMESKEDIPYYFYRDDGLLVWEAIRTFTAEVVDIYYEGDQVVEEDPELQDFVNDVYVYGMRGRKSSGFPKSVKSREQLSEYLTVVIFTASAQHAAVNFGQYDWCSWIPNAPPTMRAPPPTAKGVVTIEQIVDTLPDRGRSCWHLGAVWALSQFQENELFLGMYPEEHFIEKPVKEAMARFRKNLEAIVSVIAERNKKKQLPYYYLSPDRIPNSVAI
Excerpt: As stated previously, the compounds of the formula I are inhibitors of the enzyme 5-LO. […] J. Pharmacol., 1985, 84, 34P) which involve the use of a protein-LTB₄ conjugate produced using the procedure of Young et alia (Prostaglandins, 1983, 26(4), 605-613). The effects of a test compound on the enzyme cyclooxygenase (which is involved in the alternative metabolic pathway for arachidonic acid and gives rise to prostaglandins, thromboxanes and related metabolites) may be measured at the same time using the specific radioimmunoassay for thromboxane B₂(TxB₂) described by Carey and Forder (see above). This test provides an indication of the effects of a test compound against 5-LO and also cyclooxygenase in the presence of blood cells and proteins. It permits the selectivity of the inhibitory effect on 5-LO or cyclooxygenase to be assessed. • b) An ex vivo assay system, which is a variation of test a) above, involving administration to a group of rats of a test compound (usually orally as the suspension produced when a solution of the test compound in dimethylsulphoxide is added to carboxymethylcellulose), blood collection, heparinisation, challenge with A23187 and radioimmunoassay of LTB₄ and TxB₂. This test provides an indication of the bioavailability of a test compound as an inhibitor of 5-LO or cyclooxygenase. • c) An in vivo system involving measuring the effects of a test compound administered orally against the liberation of LTB₄ induced by zymosan within an air pouch generated within the subcutaneous tissue of the back of male rats. The rats are anaesthetised and air pouches are formed by the injection of sterile air (20 ml). A further injection of air (10 ml) is similarly given after 3 days. At 6 days after the initial air injection the test compound is administered (usually orally as the suspension produced when a solution of the test compound in dimethylsulphoxide is added to hydroxypropylmethylcellulose), followed by the intrapouch injection of zymosan (lml of a 1% suspension in physiological saline). […]

5-LO [2] = assay: Test c): in vivo zymosan-induced LTB₄ liberation in a subcutaneous air pouch; parameters: species or system male rats; settings: rats killed after 3 hours
Excerpt: As stated previously, the compounds of the formula I are inhibitors of the enzyme 5-LO. […] J. Pharmacol., 1985, 84, 34P) which involve the use of a protein-LTB₄ conjugate produced using the procedure of Young et alia (Prostaglandins, 1983, 26(4), 605-613). The effects of a test compound on the enzyme cyclooxygenase (which is involved in the alternative metabolic pathway for arachidonic acid and gives rise to prostaglandins, thromboxanes and related metabolites) may be measured at the same time using the specific radioimmunoassay for thromboxane B₂(TxB₂) described by Carey and Forder (see above). This test provides an indication of the effects of a test compound against 5-LO and also cyclooxygenase in the presence of blood cells and proteins. It permits the selectivity of the inhibitory effect on 5-LO or cyclooxygenase to be assessed. • b) An ex vivo assay system, which is a variation of test a) above, involving administration to a group of rats of a test compound (usually orally as the suspension produced when a solution of the test compound in dimethylsulphoxide is added to carboxymethylcellulose), blood collection, heparinisation, challenge with A23187 and radioimmunoassay of LTB₄ and TxB₂. […]

IC50 (5-LO [1])	SMILES	oral ED₅₀ versus LTB₄ in test c) (5-LO [2])
190 nM	COC1(c2cc(F)cc(Sc3ccc(C(C)ONC(C)=O)cc3)c2)CCOCC1 (stereo not drawn) [Example 2, 4-[5-fluoro-3-(4-methoxytetrahydropyran-4-yl)phenylthio]-α-methylbenzyl acetohydroxamate]	
310 nM	COC1(c2cc(F)cc(Sc3ccc(C(C)ONC(N)=O)cc3)c2)CCOCC1 (stereo not drawn) [Example 4, N-{4-[5-fluoro-3-(4-methoxytetrahydropyran-4-yl)phenylthio]-α-methylbenzyloxy}urea]	

SMILES	IC50 (5-LO [1])	oral ED₅₀ versus LTB₄ in test c) (5-LO [2])
CCN(CC)OC(C)c1ccc(Sc2cc(F)cc(C3(OC)CCOCC3)c2)cc1 (stereo not drawn) [Example 5, N,N-diethyl-O-{4-[5-fluoro-3-(4-methoxytetrahydropyran-4-yl)phenylthio]-α-methylbenzyl}hydroxylamine]	150 nM	approximately 1.5 mg/kg
